Laboratory results reported in PubChem BioAssay (NCI).
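Five concentrations, 48 hours, 96-well plates. GI50 marks 50% less growth. At the TGI there is no net growth.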

Key:
Experiment in all cases: DTP human tumour cell line panel, 48 h
786-0 renal = test system: 786-0 renal
A498 renal = test system: A498 renal
A549 NSCLC = test system: A549 NSCLC
ACHN renal = test system: ACHN renal
BT-549 breast = test system: BT-549 breast
CAKI-1 renal = test system: CAKI-1 renal
CCRF-CEM leukemia = test system: CCRF-CEM leukemia
COLO 205 colon = test system: COLO 205 colon
DU-145 prostate = test system: DU-145 prostate
EKVX NSCLC = test system: EKVX NSCLC
HCC-2998 colon = test system: HCC-2998 colon
HCT-116 colon = test system: HCT-116 colon
HCT-15 colon = test system: HCT-15 colon
HL-60(TB) leukemia = test system: HL-60(TB) leukemia
HOP-62 NSCLC = test system: HOP-62 NSCLC
HOP-92 NSCLC = test system: HOP-92 NSCLC
HS 578T breast = test system: HS 578T breast
HT29 colon = test system: HT29 colon
IGROV1 ovarian = test system: IGROV1 ovarian
K-562 leukemia = test system: K-562 leukemia
KM12 colon = test system: KM12 colon
LOX IMVI melanoma = test system: LOX IMVI melanoma
M14 melanoma = test system: M14 melanoma
MALME-3M melanoma = test system: MALME-3M melanoma
MCF7 breast = test system: MCF7 breast
MDA-MB-231 breast = test system: MDA-MB-231 breast
MDA-MB-435 = test system: MDA-MB-435
MDA-MB-468 breast = test system: MDA-MB-468 breast
MOLT-4 leukemia = test system: MOLT-4 leukemia
NCI-H226 lung = test system: NCI-H226 lung
NCI-H23 lung = test system: NCI-H23 lung
NCI-H460 lung = test system: NCI-H460 lung
NCI-H522 lung = test system: NCI-H522 lung
NCI/ADR-RES ovarian = test system: NCI/ADR-RES ovarian
OVCAR-3 ovarian = test system: OVCAR-3 ovarian
OVCAR-4 ovarian = test system: OVCAR-4 ovarian
OVCAR-5 ovarian = test system: OVCAR-5 ovarian
OVCAR-8 ovarian = test system: OVCAR-8 ovarian
PC-3 prostate = test system: PC-3 prostate
RPMI-8226 leukemia = test system: RPMI-8226 leukemia
RXF 393 renal = test system: RXF 393 renal
SF-268 CNS = test system: SF-268 CNS
SF-295 CNS = test system: SF-295 CNS
SF-539 CNS = test system: SF-539 CNS
SK-MEL-2 melanoma = test system: SK-MEL-2 melanoma
SK-MEL-28 melanoma = test system: SK-MEL-28 melanoma
SK-MEL-5 melanoma = test system: SK-MEL-5 melanoma
SK-OV-3 ovarian = test system: SK-OV-3 ovarian
SN12C renal = test system: SN12C renal
SNB-19 CNS = test system: SNB-19 CNS
SNB-75 CNS = test system: SNB-75 CNS
SR leukemia = test system: SR leukemia
SW-620 colon = test system: SW-620 colon
T-47D breast = test system: T-47D breast
TK-10 renal = test system: TK-10 renal
U251 CNS = test system: U251 CNS
UACC-257 melanoma = test system: UACC-257 melanoma
UACC-62 melanoma = test system: UACC-62 melanoma
UO-31 renal = test system: UO-31 renal

## CCOC(=O)C(Cc1ccccc1)N1C(=O)/C(=C/N2N=C(c3ccc(OC)cc3)CC2c2ccc3ccccc3c2)SC1=S (stereo not drawn)
786-0 renal
  GI50: 5.31 µM
  TGI: 27.9 µM
A498 renal
  GI50: 5.08 µM
  TGI: 19.5 µM
A549 NSCLC
  GI50: 7.08 µM
  TGI: 27.3 µM
ACHN renal
  GI50: 4.86 µM
  TGI: 21.7 µM
BT-549 breast
  GI50: 5.79 µM
  TGI: 19.8 µM
CAKI-1 renal
  GI50: 3.76 µM
  TGI: 21.7 µM
CCRF-CEM leukemia
  GI50: 3.27 µM
  TGI: > 100 µM
COLO 205 colon
  GI50: 3.09 µM
  TGI: 14.7 µM
DU-145 prostate
  GI50: 11.2 µM
  TGI: 36.5 µM
EKVX NSCLC
  GI50: 2.46 µM
  TGI: 11.5 µM
HCC-2998 colon
  GI50: 3.05 µM
  TGI: 10.2 µM
HCT-116 colon
  GI50: 3.3 µM
  TGI: 17.4 µM
HCT-15 colon
  GI50: 2.6 µM
  TGI: 10.4 µM
HL-60(TB) leukemia
  GI50: 3.54 µM
  TGI: 16.5 µM
HOP-62 NSCLC
  GI50: 3.82 µM
  TGI: 19.6 µM
HOP-92 NSCLC
  GI50: 2.65 µM
  TGI: 12.1 µM
HS 578T breast
  GI50: 2.62 µM
  TGI: 16.6 µM
HT29 colon
  GI50: 3.29 µM
  TGI: 13.5 µM
IGROV1 ovarian
  GI50: 4.09 µM
  TGI: 15.6 µM
K-562 leukemia
  GI50: 3.69 µM
  TGI: > 100 µM
KM12 colon
  GI50: 3.54 µM
  TGI: 13.3 µM
LOX IMVI melanoma
  GI50: 2.8 µM
  TGI: 10.8 µM
M14 melanoma
  GI50: 4.49 µM
  TGI: 41.7 µM
MALME-3M melanoma
  GI50: 3.24 µM
  TGI: 13.6 µM
MCF7 breast
  GI50: 2.35 µM
  TGI: 7.63 µM
MDA-MB-231 breast
  GI50: 4.29 µM
  TGI: 17.9 µM
MDA-MB-435
  GI50: 3.57 µM
  TGI: 17.8 µM
MDA-MB-468 breast
  GI50: 2.33 µM
  TGI: 7.25 µM
MOLT-4 leukemia
  GI50: 3.45 µM
  TGI: > 100 µM
NCI-H226 lung
  GI50: 2.56 µM
  TGI: 12.8 µM
NCI-H23 lung
  GI50: 3.47 µM
  TGI: 14.5 µM
NCI-H460 lung
  GI50: 3.19 µM
  TGI: 13.8 µM
NCI-H522 lung
  GI50: 2.49 µM
  TGI: 8.88 µM
NCI/ADR-RES ovarian
  GI50: 14.1 µM
  TGI: 91.3 µM
OVCAR-3 ovarian
  GI50: 3.21 µM
  TGI: 11.7 µM
OVCAR-4 ovarian
  GI50: 6.63 µM
  TGI: 40.1 µM
OVCAR-5 ovarian
  GI50: 13.6 µM
  TGI: 27.2 µM
OVCAR-8 ovarian
  GI50: 3.57 µM
  TGI: 15.3 µM
PC-3 prostate
  GI50: 3.78 µM
  TGI: 40.9 µM
RPMI-8226 leukemia
  GI50: 2.79 µM
  TGI: > 100 µM
RXF 393 renal
  GI50: 2.22 µM
  TGI: 6.36 µM
SF-268 CNS
  GI50: 3.47 µM
  TGI: 22.9 µM
SF-295 CNS
  GI50: 2.11 µM
  TGI: 7.21 µM
SF-539 CNS
  GI50: 3.21 µM
  TGI: 10.4 µM
SK-MEL-2 melanoma
  GI50: 2.18 µM
  TGI: 5.03 µM
SK-MEL-28 melanoma
  GI50: 3.5 µM
  TGI: 13.1 µM
SK-MEL-5 melanoma
  GI50: 2.24 µM
  TGI: 5.51 µM
SK-OV-3 ovarian
  GI50: 5.28 µM
  TGI: 20.6 µM
SN12C renal
  GI50: 3.34 µM
  TGI: 13.2 µM
SNB-19 CNS
  GI50: 3.35 µM
  TGI: 16.4 µM
SNB-75 CNS
  GI50: 2.15 µM
  TGI: 19.3 µM
SR leukemia
  GI50: 7.1 µM
  TGI: > 100 µM
SW-620 colon
  GI50: 2.57 µM
  TGI: 17 µM
T-47D breast
  GI50: 3.06 µM
  TGI: 34.1 µM
TK-10 renal
  GI50: 4.97 µM
  TGI: 19 µM
U251 CNS
  GI50: 3.26 µM
  TGI: 20.4 µM
UACC-257 melanoma
  GI50: 5.44 µM
  TGI: 23.1 µM
UACC-62 melanoma
  GI50: 2.33 µM
  TGI: 6.97 µM
UO-31 renal
  GI50: 4.86 µM
  TGI: 18.5 µM
